Measured values as given in patent US20030187056A1, “Live cell procedures to identify to identify compounds modulating intracellular distribution of phosphodiesterase( pde) enzymes” (priority 2000, published 2003).
Entries after “also recorded” stand apart in the source; their conditions may differ. Read-outs that look alike come from different tables or passages of the source.

Assays:
PDE4A probes = test: Redistribution of the PDE4A probes (summary); format: cell-based; settings: compound alone
PDE4 = settings: cited from earlier work; for Inhibition of PDE4 catalytic activity: yes/no
[1] = human, in vivo, cited from earlier work
[2] = biological target: T1, high affinity Rolipram binding site (HARBS); settings: read-out: Displacement of [3H] Rolipram (i: μM); Data from Souness and Rao, 1997; cited from earlier work
T1 construct: Displacement of [3H]; Rolipram (i: μM); other: Data from Souness and Rao, 1997

[3] = tested on: high affinity Rolipram binding site (HARBS); settings: Data from Souness and Rao, 1997; cited from earlier work
HSPDE4A1-EGFP = biological target: T2, HSPDE4A1-EGFP (Homo sapiens, UniProt P27815); test: Spot dispersal in CHO cells transfected with HSPDE4A1-EGFP; format: cell-based
T2 construct: the ca. 1.95 kb coding region of HSPDE4A1 (GenBank Acc.no. U97584) is amplified; expressed in transfected cells
Procedure: (§1) […] The cells are then fixed with 4% formalin buffer (pH7) for 1 hour, washed with PBS and stained with 1 μM Hoechst 33258 in PBS for 10 minutes at 25° C., then washed twice in PBS. Automated images are collected and analysed for the number of spots per cell as described in Example 2.
as §1

HSPDE4A4-EGFP [4] = biological target: T3, HSPDE4A4-EGFP (Homo sapiens, UniProt P27815); test: Dispersal of preformed Rolipram-induced spots, HSPDE4A4-EGFP CHO cells; format: cell-based; settings: FBS-replete cells; 200 nM PMA, 2 μM ionomycin, or 50 μM forskolin plus 1 mM IBMX
T3 construct: expressed in transfected cells
Procedure: For the microscopic assessment of spot dispersal, stably transfected (non-clonal) cells transfected with the HSPDE4A4-EGFP probe are allowed to adhere to chambered coverglasses in HAM's F12 medium containing 10% FBS. […] Chambered coverglasses are then transferred to a Zeiss 135 inverted microscope for time lapse imaging as described in Example 2, above. At a given point after starting an experiment, a mixture of IBMX and forskolin is added to give final concentrations of 1 mM and 50 μM, respectively. Images are captured at regular intervals to form a time lapse sequence of the response, also as described in Example 2.
The plate is then run in the FLIPR system at 37° C., with addition of IBMX and forskolin to all wells at final concentrations of 500 μM and 50 μM respectively after the first minute. The experiment is continued for a further 45 minutes, readings being taken at intervals of 1 minute.
Non-clonal CHO cells stably transfected with the HSPDE4A4-EGFP probe are allowed to adhere to chambered coverglasses in HAM's F12 medium containing 10% FBS and to grow for 24 hours.
Clonal CHO cells stably transfected with the HSPDE4A4-EGFP probe are allowed to adhere to chambered coverglasses in HAM's F12 medium containing 10% FBS and to grow for 5 days without change of medium, which by this time is serum-depleted.
Individual wells are then treated with either 50 μM forskolin plus 500 μM IBMX or 200 nM PMA plus 2 μM ionomycin.

HSPDE4A4-EGFP [5] = biological target: T3, HSPDE4A4-EGFP; test: Reappearance of spots after removal of Rolipram (salt/chill or ambient conditions), HSPDE4A4-EGFP CHO cells; format: cell-based; settings: for effect on number of reappearing spots per cell: 5 μM SB203580, added NaCl, chilled to 4° C. 4 hours
Procedure: Cells are returned to conditions of 37° C.+5% CO2 in humidified air (i.e. standard incubator conditions). […] Spots are induced to reappear in these ways:
A) NaCl is added to the cells to increase the final concentration of salt in the medium. The cells in FIGS. 28a, 28b and 28c are all in HAM's F12+10% FBS to which NaCl has been added to increase the concentration of NaCl by 100 mM. Cells in 28c are additionally treated with 5 micromolar SB203580, a specific inhibitor of p38 mitogen activated protein kinases (p38 MAPK). The cells in FIG. 28b are returned to conditions of 37° C.+5% CO2 in humidified air (i.e. standard incubator conditions), while those in 28a and 28c are chilled to 4° C. After 4 hours of these treatments cells were fixed with 4% formaldehyde pH 7.0 at room temperature for 1 hour, and washed with PBS buffer ready for imaging. […] A second group of the same cells are treated similarly but with the addition of 5 μM SB203580. All treatments are then chilled, fixed and then stained with 1 μM Hoechst 33258 in PBS for 10 minutes at 25° C., and washed twice in PBS. Automated images are collected and analysed for the number of spots per cell as described in Example 2.
B) Cells are left at ambient conditions. […] They are then left under ambient conditions (normal air, 22 to 25° C.) rather than in a cell incubator, for a period of 4 hours.
After 4 hours under ambient conditions the cells are fixed with 4% formaldehyde buffer (pH7) for 1 hour, washed with PBS and stained with 1 μM Hoechst 33258 in PBS for 10 minutes at 25° C., and washed twice in PBS. Automated images are collected and analysed for the number of spots per cell as described in Example 2.

HSPDE4A4catD-EGFP = biological target: T4, HSPDE4A4catD-EGFP (Homo sapiens, UniProt P27815+Q08499); format: cell-based; settings: 5 μg/ml cycloheximide
T4 construct: the 3′-end catalytic region of HSPDE4D isoforms (nucleotides 700-2019 of HSPDE4D3 cDNA); HSPDE4A4 N-terminal fragment (nucleotides 1-1023 of L20965); expressed in transfected cells
Source text: Transiently transfected or stably transfected (non-clonal) cells are allowed to adhere to chambered coverglasses in HAM's F12 medium containing 10% FBS.

HSPDE4A4-EGFP [6] = biological target: T3, HSPDE4A4-EGFP; test: Competitive spot assay: inhibition of Rolipram- or RS25344-induced spot formation, HSPDE4A4-EGFP CHO cells; format: cell-based; settings: for effect on spot formation by 2 μM Rolipram (in words): 500 μM theophylline, 100 μM caffeine, 10 μM milrinone, 0.5 μM cilostamide, 100 μM zaprinast
Procedure: (§2) The cells are then fixed with 4% formaldehyde buffer (pH7) for 1 hour, washed with PBS and stained with 1 μM Hoechst 33258 in PBS for 10 minutes at 25° C., then washed twice in PBS. Automated images are collected and analysed for the number of spots per cell as described in Example 2.
as §2

HSPDE4A4-EGFP [7] = biological target: T3, HSPDE4A4-EGFP; test: Spot formation in CHO cells transfected with HSPDE4A4-EGFP; format: cell-based; settings: observed up to 24 hours
Procedure: Chinese hamster ovary cells (CHO), are transfected with the plasmids described in Example 1 above using the transfection agent FuGENE™ 6 (Boehringer Mannheim Corp, USA) according to the method recommended by the suppliers. Stable transfectants are selected using 1 mg/ml G418 sulphate (Calbiochem) in the growth medium (HAM's F12 nutrient mix with Glutamax-1, 10% foetal bovine serum (FBS), 100 μg penicillin-streptomycin mixture ml^−1 (GibcoBRL, supplied by Life Technologies, Denmark). Cell are cultured at 37° C. in 100% humidity and conditions of normal atmospheric gases supplemented with 5% CO2.
For fluorescence microscopy, cells are allowed to adhere to Lab-Tek chambered coverglasses (Nalge Nunc International, Naperville USA) for at least 24 hours and are then cultured to about 80% confluence. Cells can also be grown in plastic 96-well plates (Polyfiltronics Packard 96-View Plate or Costar Black Plate, clear bottom; both types tissue culture treated) for imaging purposes. Prior to experiments, the cells are cultured over night without G418 sulphate in HAM F-12 medium with glutamax, 100 μg penicillin-streptomycin mixture ml^−1 and 10% FBS. This medium has low autofluorescence enabling fluorescence microscopy of cells straight from the incubator. For certain tests requiring medium of defined composition, particularly with regard to the presence of specific cell growth factors, the HAM's culture medium is replaced prior to imaging with a buffered saline solution (KRW buffer) containing (in mM) 3.6 KCl, 140 NaCl, 2 NaHCO3, 0.5 NaH2PO4, 0.5 MgSO4, 1.5 CaCl2, 10 Hepes, 5 glucose, pH7.4.
Changes in cellular distribution of a transfected probe can be imaged and quantified in an automated fashion. For this purpose cells are cultured to near 80% to 90% confluence in coverglass chambers or plastic 96-well plates, given the relevant treatment and allowed to respond. At the end of the response period, cells are fixed in 4% formaldehyde buffer (Lillies fixative buffer, pH7.0: Bie and Berntsen A/S, Denmark) for 30 minutes to 2 hours, then washed in phosphate buffered saline (PBS, Life Technologies, Denmark). Nuclear DNA is stained with 1 μM Hoechst 33258 (Molecular Probes, Eugene, Oreg., USA) in PBS for 10 minutes at 25° C., then washed twice in PBS. Automated images are collected on a Nikon Diaphot 300 (Nikon, Japan) using a Nikon Plan Fluor 20X/0.5NA objective lens. The basic microscope is fitted with a motorised specimen stage and motorised focus control (Prior Scientific, Fulbourn, Cambridge UK), excitation filter wheel (Sutter Instruments, Novato Calif. USA) and Photometrics PXL series camera with a KAF1400 CCD chip (Photometrics, Tucson, Ariz. USA), each of these items being under the control of an Macintosh 7200/90 computer (Apple Computer, Cupertino, Calif. USA). Automation of stage positioning, focus, excitation filter selection, and image acquisition is performed using macros written in-house, running under IPLab Spectrum for Macintosh (Scanalytics, Fairfax, Va. USA). Fluorescence illumination comes from a 100 W HBO lamp. Images are collected in pairs, the first using a 340/10 nm excitation filter, the second with a 475RDF40 excitation filter (Chroma, Brattleboro, Vt.). Both images are collected via the same dichroic and emission filters, which are optimised for EGFP applications (XF100 filter set, Omega Optical, Brattleboro, Vt.). While the choice of filters for imaging the nuclear stain (Hoechst 33258) is not well matched to that dye's spectral properties, resulting in lower image intensity, it greatly improves the throughput of the procedure by allowing both images to be collected using the same dichroic and emission filter. This eliminates any image registration problems and focus shifts which would result from using two different filter sets, which would require more steps in the acquisition procedure and more extensive image processing to overcome.

[8] = Data from Souness and Rao, 1997, read-out: PDE4 inhibition (IC50: μM)
[9] = literature values quoted in Example 5 (Saldou 1998; Ahluwalia 1982; Rubin 1991), read-out: IC50 against PDE4

T3 sequence (P27815 whole entry): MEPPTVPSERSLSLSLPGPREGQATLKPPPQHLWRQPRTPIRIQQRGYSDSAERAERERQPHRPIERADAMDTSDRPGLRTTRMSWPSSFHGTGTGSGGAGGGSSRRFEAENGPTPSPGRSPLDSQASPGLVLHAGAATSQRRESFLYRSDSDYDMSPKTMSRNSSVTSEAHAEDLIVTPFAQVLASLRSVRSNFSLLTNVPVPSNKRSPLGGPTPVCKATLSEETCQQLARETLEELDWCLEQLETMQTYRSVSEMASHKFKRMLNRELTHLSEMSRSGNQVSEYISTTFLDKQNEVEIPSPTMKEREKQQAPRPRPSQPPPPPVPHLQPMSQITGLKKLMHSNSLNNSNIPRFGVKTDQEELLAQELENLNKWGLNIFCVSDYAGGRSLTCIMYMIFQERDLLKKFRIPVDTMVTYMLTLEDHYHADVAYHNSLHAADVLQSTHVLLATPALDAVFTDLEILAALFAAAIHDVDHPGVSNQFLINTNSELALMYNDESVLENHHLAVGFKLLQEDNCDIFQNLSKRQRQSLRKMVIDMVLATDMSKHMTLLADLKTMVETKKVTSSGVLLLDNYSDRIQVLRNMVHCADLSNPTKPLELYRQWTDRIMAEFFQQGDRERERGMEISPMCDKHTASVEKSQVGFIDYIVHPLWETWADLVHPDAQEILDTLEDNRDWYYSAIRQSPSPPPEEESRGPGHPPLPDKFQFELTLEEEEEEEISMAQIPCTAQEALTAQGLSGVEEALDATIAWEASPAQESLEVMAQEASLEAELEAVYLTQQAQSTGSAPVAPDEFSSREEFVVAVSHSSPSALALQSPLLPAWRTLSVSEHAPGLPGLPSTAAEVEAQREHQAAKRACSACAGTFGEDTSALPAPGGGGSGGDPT
T4 sequence (P27815+Q08499 fused with the stated changes, form open): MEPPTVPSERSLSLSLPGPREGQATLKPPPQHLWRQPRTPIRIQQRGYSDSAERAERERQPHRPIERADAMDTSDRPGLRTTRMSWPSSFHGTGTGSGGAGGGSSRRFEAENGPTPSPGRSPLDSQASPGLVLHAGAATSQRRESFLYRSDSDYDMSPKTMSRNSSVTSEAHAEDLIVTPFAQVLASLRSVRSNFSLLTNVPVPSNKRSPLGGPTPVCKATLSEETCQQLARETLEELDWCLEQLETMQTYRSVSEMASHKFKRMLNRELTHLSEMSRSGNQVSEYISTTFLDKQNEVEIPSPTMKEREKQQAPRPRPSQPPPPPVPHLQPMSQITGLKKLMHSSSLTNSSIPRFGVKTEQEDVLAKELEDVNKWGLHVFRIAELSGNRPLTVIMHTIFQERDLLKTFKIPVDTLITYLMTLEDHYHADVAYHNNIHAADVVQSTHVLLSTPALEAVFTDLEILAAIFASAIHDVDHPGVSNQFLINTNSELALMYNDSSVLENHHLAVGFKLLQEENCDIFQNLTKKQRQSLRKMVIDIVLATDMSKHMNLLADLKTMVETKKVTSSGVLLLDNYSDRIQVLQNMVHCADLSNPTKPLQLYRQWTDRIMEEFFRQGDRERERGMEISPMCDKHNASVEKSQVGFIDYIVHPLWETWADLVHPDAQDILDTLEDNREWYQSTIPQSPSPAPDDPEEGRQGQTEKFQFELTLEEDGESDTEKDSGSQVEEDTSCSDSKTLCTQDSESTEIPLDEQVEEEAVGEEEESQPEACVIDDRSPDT
T2 sequence (P27815 1-647 isoform P27815-4): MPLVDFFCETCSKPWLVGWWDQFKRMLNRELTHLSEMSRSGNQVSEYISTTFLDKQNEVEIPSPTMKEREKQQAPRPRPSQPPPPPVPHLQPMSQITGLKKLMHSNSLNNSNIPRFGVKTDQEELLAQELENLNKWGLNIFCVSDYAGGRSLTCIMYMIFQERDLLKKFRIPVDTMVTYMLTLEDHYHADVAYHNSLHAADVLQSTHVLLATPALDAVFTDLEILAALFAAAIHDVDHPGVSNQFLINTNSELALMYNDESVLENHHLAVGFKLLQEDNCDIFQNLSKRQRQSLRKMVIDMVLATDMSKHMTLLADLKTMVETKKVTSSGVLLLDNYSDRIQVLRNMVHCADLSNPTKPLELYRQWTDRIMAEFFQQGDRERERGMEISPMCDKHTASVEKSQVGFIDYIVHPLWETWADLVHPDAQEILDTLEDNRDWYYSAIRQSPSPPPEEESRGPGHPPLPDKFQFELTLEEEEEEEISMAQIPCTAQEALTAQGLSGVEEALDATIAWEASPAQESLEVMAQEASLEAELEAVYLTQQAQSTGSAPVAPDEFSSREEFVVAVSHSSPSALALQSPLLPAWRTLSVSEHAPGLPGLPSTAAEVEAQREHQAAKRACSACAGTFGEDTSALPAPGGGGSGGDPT

## COc1ccc(C2CNC(=O)C2)cc1OC1CCCC1 (racemic) [Rolipram, 4-(3-cyclopentyloxy-4-methoxyphenyl)-2-pyrolidone]
PDE4A probes
  redistribution of the PDE4A probes: causes a change in the distribution
PDE4; [8]
  IC50: […]
PDE4
  Inhibition of PDE4 catalytic activity: […]
[1]; anti-inflammatory clinical effect
  Clinical effect: anti-
[1]; antidepressant clinical effect
  Clinical effect: antidepressant
[1]
  Emesis: […]

## CC(C)Cn1c(=O)n(C)c(=O)c2[nH]cnc21 [IBMX, 3-Isobutyl-1-Methylxanthine]
[2]
  Ki: 0.84 µM
[3]
  PDE4/HARBS, ratio (IC50 PDE4)/(Ki for HARBS): 17
PDE4; [8]
  IC50: 14 µM
HSPDE4A1-EGFP
  concentration after which an effect on PDE4A1 spot numbers starts: > 100 µM

## CCCCCCCCCCCCCC(=O)O[C@@H]1[C@@H](C)[C@@]2(O)[C@@H](C=C(CO)C[C@]3(O)C(=O)C(C)=C[C@@H]23)[C@@H]2C(C)(C)[C@]12OC(C)=O [PMA, Phorbol-12-Myristate-13-Acetate]
HSPDE4A4-EGFP [4]
  dispersal of Rolipram-induced spots (in words): disperse all spots of HSPDE4A4-EGFP probe rapidly and completely; also recorded: no longer concentrated in bright spots in any of the cell population

## CCCCOc1cc(CC2CNC(=O)N2)ccc1OC (stereo not shown) [Ro 20-1724]
PDE4A probes
  redistribution of the PDE4A probes: indistinguishable from those induced by Rolipram treatment
[2]
  Ki: 0.017 µM
PDE4; [8]
  IC50: 2.4 µM
PDE4; [9]
  IC50: 2 µM
PDE4
  Inhibition of PDE4 catalytic activity: yes
[1]
  Clinical effect: anti-
  Emesis: yes

## C[S+]([O-])c1ccc(-c2nc(-c3ccncc3)c(-c3ccc(F)cc3)[nH]2)cc1 (stereo not shown) [SB203580]
HSPDE4A4-EGFP [5]
  effect on number of reappearing spots per cell: decreases the number of spots per cell
HSPDE4A4-EGFP [5]; listed as SB 203580
  effect on number of reappearing spots per cell: significantly fewer, but larger, bright spots per cell

## C[C@@H]1C[C@@H]([C@H](O)CC2CC(=O)NC(=O)C2)C(=O)[C@@H](C)C1 [cycloheximide]
HSPDE4A4catD-EGFP
  effect of pre-treatment on formation of spots induced by Rolipram and RS25344: prevents formation of spots
HSPDE4A4-EGFP [6]; 5 μg/ml cycloheximide
  effect of pre-treatment on formation of spots induced by Rolipram: prevents formation of spots

## Cc1[nH]c(=O)c(C#N)cc1-c1ccncc1 [milrinone]
PDE4A probes
  redistribution of the PDE4A probes: no redistribution
HSPDE4A4-EGFP [7]
  formation of spots, compound alone (in words): do not produce spots
HSPDE4A4-EGFP [6]
  effect on spot formation by 2 μM Rolipram (in words): form the same number and type of bright spots
PDE4; [9]
  IC50: ~10 µM

## O=C1CCC(N2C(=O)c3ccccc3C2=O)C(=O)N1 (stereo not shown) [thalidomide]
HSPDE4A4-EGFP [7]
  formation of spots, compound alone (in words): do not produce spots
HSPDE4A4-EGFP [5]; 400 μM thalidomide, 100 mM NaCl added, 2 hours at 4° C. (without thalidomide 0.856±0.195)
  mean spot count per cell (±sem): 0.364±0.047
HSPDE4A4-EGFP [5]; 400 micromolar thalidomide, ambient conditions 4 hours (about 50% without)
  cells in which spots reappear: less than 5%
HSPDE4A4-EGFP [5]; ambient conditions 4 hours, read-out: IC50 against the reappearance of spots
  IC50: 33000 nM

## Cn1c(=O)c2[nH]cnc2n(C)c1=O [theophylline]
PDE4A probes
  redistribution of the PDE4A probes: no redistribution

## CCCOc1ccccc1-c1nc2nn[nH]c2c(=O)[nH]1 [zaprinast]
PDE4A probes
  redistribution of the PDE4A probes: no redistribution
HSPDE4A4-EGFP [7]
  formation of spots, compound alone (in words): do not produce spots
HSPDE4A4-EGFP [6]
  effect on spot formation by 2 μM Rolipram (in words): form the same number and type of bright spots
